PubChem BioAssay (NCI)
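Values below derive from 48-hour exposures of cells grown in 96-well plates, with endpoints linearly interpolated between the two concentrations bracketing the appropriate inhibition level. The concentration for 50% growth inhibition is given as GI50. TGI marks complete inhibition of growth.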

Legend:
Assay in all cases: NCI anticancer screen, dose series, 48 h
[1] = system: CCRF-CEM leukemia
[2] = system: EKVX NSCLC
[3] = system: HOP-62 NSCLC
[4] = system: HOP-92 NSCLC
[5] = system: HS 578T breast
[6] = system: K-562 leukemia
[7] = system: NCI-H23 lung
[8] = system: NCI-H460 lung
[9] = system: SN12C renal
[10] = system: SNB-19 CNS

SMILES | GI50 [1] [µM] | TGI [1] [µM] | GI50 [2] [µM] | TGI [2] [µM] | GI50 [3] [µM] | TGI [3] [µM] | GI50 [4] [µM] | TGI [4] [µM] | GI50 [5] [µM] | TGI [5] [µM] | GI50 [6] [µM] | TGI [6] [µM] | GI50 [7] [µM] | TGI [7] [µM] | GI50 [8] [µM] | TGI [8] [µM] | GI50 [9] [µM] | TGI [9] [µM] | GI50 [10] [µM] | TGI [10] [µM]
CC1(C)N=C(N)N=C(N)N1c1ccc(CCCCc2ccc(Cl)c(S(=O)(=O)F)c2)c(Cl)c1 | 0.168 | 8.65 | 2.81 | 37.7 | 5.82 | > 43.7 | 1.08 | 15.2 | 9.71 | 34.2 | 0.127 | 15.8 | 0.843 | 19 | 0.315 | 16.5 | 0.306 | 16.2 | 3.07 | 20.6
C[C@H](Nc1cc(Cl)nc2c1cnn2[C@@H]1O[C@H](COP(=O)(O)CP(=O)(O)O)[C@@H](O)[C@H]1O)c1ccccc1F | > 100 | > 100 | > 100 | > 100 | > 100 | > 100 | > 100 | > 100 | > 100 | > 100 | > 100 | > 100 | > 100 | > 100 | > 100 | > 100 | > 100 | > 100 | > 100 | > 100
CN1CC[C@@H](c2c(O)cc(O)c3c(=O)cc(-c4ccc(C(F)(F)F)cc4Cl)oc23)[C@@H]1CO | 23.4 | 70.2 | 13.9 | 37.5 | 17.2 | 43.5 | 13 | 40.3 | 11.8 | 33.6 | 29.8 | 85.6 | 15.2 | 37.3 | 15.8 | 31.4 | 16.4 | 44.6 | 21 | 62.7
C=CCc1ccc(O)c(-c2ccc(O)c(CC=C)c2)c1 | 13.1 | > 100 | 7.11 | 23.3 | 20 | 39.8 | 13.9 | 31.1 | 14.2 | 39.7 | 8.54 | > 46.1 | 16.3 | 34.4 | 14.1 | 35.3 | 14.4 | 29.6 | 21.1 | 37
COC12C(COC(N)=O)C3=C(C(=O)C(C)=C(N)C3=O)N1CC1C2N1C (centres undefined) | – | 51.7 | – | 60.3 | – | 16.8 | – | 36.4 | – | 75.7 | – | 179 | – | 17.6 | – | 1.86 | – | 29.5 | – | 62.5
Oc1ccc2ccccc2c1N=Nc1ccc(Br)cc1 | – | > 100 | – | > 100 | – | > 100 | – | > 100 | – | > 100 | – | > 100 | – | > 100 | – | – | – | > 100 | – | > 100
Cn1c(Nc2ccc(C(F)(F)F)cc2)nc2cc(Oc3ccnc(-c4ncc(C(F)(F)F)[nH]4)c3)ccc21 | 0.251 | 5.17 | 2.33 | 19.1 | 2.85 | 18.6 | 0.408 | 7.26 | 0.0555 | 9.41 | 1.76 | 25 | 0.31 | 7.8 | 0.197 | 7.61 | 0.0855 | 16.6 | 1.04 | 20.1
CCc1ccc(/C=C/c2ccc(O)c3ncccc23)[n+](C)c1 | 4.95 | > 100 | 0.777 | > 100 | – | > 100 | 0.0293 | 3.54 | 51.2 | > 100 | 0.517 | > 100 | 4.2 | > 100 | 0.507 | > 100 | 0.457 | > 100 | 11.5 | > 100
CN(C)c1ncnc2c1ncn2CCn1cnc2c(N(C)C)ncnc21 | – | > 100 | – | > 100 | – | > 100 | – | > 100 | – | > 100 | – | – | – | > 100 | – | > 100 | – | > 100 | – | > 100
S=c1[nH]c2c(Cl)c(Cl)c(Cl)c(Cl)c2[nH]1 | – | 19.5 | – | 37.4 | – | 80.2 | – | 53.6 | – | 69.4 | – | 38.4 | – | > 100 | – | 40.6 | – | 47 | – | 81.3
C[C@H]1CN[C@@H]2[C@@H](C)[C@H]3[C@@H](C[C@H]4[C@@H]5CC[C@H]6C[C@@H](N)CC[C@]6(C)[C@H]5CC[C@]34C)O[C@@]2(O)C1 | – | 4.27 | – | 14.9 | – | – | – | 11.4 | – | 6.55 | – | 41.9 | – | 26.9 | – | 7.78 | – | 4.25 | – | 6.96
COC(=O)c1ccc2c(c1)/C(=C\c1cc(Br)c(O)c(Br)c1)C(=O)N2 | 5.98 | > 25 | 15.8 | > 25 | 10.5 | > 25 | 2.45 | 17.4 | 4.75 | > 22.6 | 8.14 | > 25 | 7.22 | > 25 | 7.57 | > 25 | 10 | > 25 | 12.4 | > 25
O=C(Nc1ccc(Cl)c(C(F)(F)F)c1)c1ccc(NC2=C(Cl)C(=O)N(Cc3ccccc3)C2=O)cc1 | 1.98 | 6.07 | 11.5 | 34.5 | 22.4 | 46.1 | 4.34 | 14.7 | 2.43 | 5.67 | 3.49 | 7.24 | – | – | 7.04 | 42.3 | 17.9 | 31.8 | 29.2 | > 100
O=S(=O)(Nc1ccc(Cl)cc1Cl)c1ccc(-c2cnc(C3CC3)o2)cc1 | 0.509 | > 100 | 2.56 | 88.6 | 0.909 | 55.4 | 0.491 | 15.3 | 0.365 | 48.5 | 0.382 | > 100 | 1.4 | 55.5 | 0.466 | > 40.4 | 1.4 | 46.2 | 0.538 | > 100
